According to patent US4345938A, “Herbicidal 2-haloacetanilides” (Monsanto Company, priority 1980, dated 1982):
Read-outs that look alike come from different tables or passages of the source.

How the values were obtained:
[1] = tested on: Cyperus serotinus; assay: Field transplant rice test, applied 0 DAT, CS; format: in vivo; conditions: 0 h, read-out: Percent Inhibition, CS; for inhibition at 375 g/ha: 0.375 Kg/Ha; for inhibition at 750 g/ha: 0.75 Kg/Ha; for inhibition at 1500 g/ha: 1.5 Kg/Ha; for inhibition at 3000 g/ha: 3.0 Kg/Ha
Method: (§1) The test data in Table III for all compounds was obtained under identical test conditions. The weeds used in the tests herein have the following abbreviations in the tables: Echinochloa crus-galli (EC), Monochloria vaginalis (MV), Cyperus Serotinus (CS), Eleocharis Kuroguwai (EK) and Sagittaria trifolia (ST).
(§2) In further comparative tests, a preferred compound of this invention (Example 1) was tested in the field with prior art Compounds A-D. These tests were conducted under conditions reflecting herbicide application times generally favorable to all herbicides in the test. The timing of application of herbicides to transplant rice is very important, whether, as in some instances, prior to transplanting the rice; in other instances, at the time of transplanting or else after transplanting. Application times are conventionally referred to as "days before transplant" (DBT) or "days after transplant" ("DAT"). The field test data in Table IV was obtained from a test in which the herbicides were applied at the time of transplant, i.e., "0 DAT", with observations being made weekly up to six weeks after transplant ("WAT") beginning at two weeks after transplant; for illustrative and representative purposes, only the early, middle and late period observations, i.e., 2 WAT, 4 WAT and 6 WAT, are shown in Table IV. The data in Table IV is for rates of application common to all herbicides in the test, i.e., from 3.0 kg/ha (2.67 lb/A) down to 0.375 kg/ha (0.34 lb/A). All herbicides were applied at their actual or expected use rates, i.e., as granules containing 2.5% by weight herbicide for the compound of Example 1, Compounds B, C and D and 5.0% by weight for Compound A.

[2] = tested on: Cyperus serotinus; assay: Field transplant rice test, applied 9 DAT, CS; format: in vivo; conditions: for inhibition at 375 g/ha / inhibition at 750 g/ha / inhibition at 1500 g/ha / inhibition at 3000 g/ha: Cyperus serotinus, 216 h, read-out: Percent Inhibition, CS; for inhibition at 375 g/ha: 0.375 Kg/Ha; for inhibition at 750 g/ha: 0.75 Kg/Ha; for inhibition at 1500 g/ha: 1.5 Kg/Ha; for inhibition at 3000 g/ha: 3.0 Kg/Ha
From the text: (§3) In the discussion of data below, occasional reference is made to herbicide application rates symbolized as "GR15 " and "GR85 "; these rates are given in kilograms per hectare (kg/ha) which are convertible into pounds per acre (lbs/A) by dividing the kg/ha rate by 1.12.
(§4) A further guide to the effectiveness of a chemical as a selective herbicide is the "selectivity factor" ("SF") for a herbicide in given crops and weeds. The selectivity factor is a measure of the relative degree of crop safety and weed injury and is expressed in terms of the GR15 /GR85 ratio, i.e., the GR15 rate for the crop divided by the GR85 rate for the weed, both rates in kg/ha (lb/A.)
as §1, §2
(§5) In Table V are presented field data showing the relative performance of the compound of Example 1 and Compounds A-D applied 9 DAT, with observations being made weekly from 3 WAT to 7 WAT; again, for illustrative and representative purposes, only the early, middle and late period observations are reported in Table V, the herbicide rates and concentrations of active ingredients the same as is shown in Table IV.

[3] = tested on: Rice; assay: Field transplant rice test, applied 0 DAT, rice injury; format: in vivo; conditions: Oryza sativa, 0 h, read-out: Percent Inhibition, Rice; for inhibition at 375 g/ha: 0.375 Kg/Ha; for inhibition at 750 g/ha: 0.75 Kg/Ha; for inhibition at 1500 g/ha: 1.5 Kg/Ha; for inhibition at 3000 g/ha: 3.0 Kg/Ha
Method: as §2

[4] = tested on: Echinochloa crus-galli; assay: Field transplant rice test, applied 9 DAT, EC; format: in vivo; conditions: for inhibition at 375 g/ha / inhibition at 750 g/ha / inhibition at 1500 g/ha / inhibition at 3000 g/ha: Echinochloa crus-galli, 216 h, read-out: Percent Inhibition, EC; for inhibition at 375 g/ha: 0.375 Kg/Ha; for inhibition at 750 g/ha: 0.75 Kg/Ha; for inhibition at 1500 g/ha: 1.5 Kg/Ha; for inhibition at 3000 g/ha: 3.0 Kg/Ha
From the text: as §3, §4, §1, §2, §5

[5] = tested on: Monochoria vaginalis; assay: Field transplant rice test, applied 9 DAT, MV; format: in vivo; conditions: for inhibition at 375 g/ha / inhibition at 750 g/ha / inhibition at 1500 g/ha / inhibition at 3000 g/ha: Pontederia vaginalis, 216 h, read-out: Percent Inhibition, MV; for inhibition at 375 g/ha: 0.375 Kg/Ha; for inhibition at 750 g/ha: 0.75 Kg/Ha; for inhibition at 1500 g/ha: 1.5 Kg/Ha; for inhibition at 3000 g/ha: 3.0 Kg/Ha
From the text: as §3, §4, §1, §2, §5

[6] = tested on: Rice; assay: Greenhouse transplant rice test, rice injury; format: in vivo, Rice (Bluebelle); conditions: Oryza sativa, about 3 WAT, read-out: Percent Inhibition, Rice
From the text: The test procedure used in this greenhouse test is as follows: Ray silt loam top soil containing about 0.05% by weight of krillium and sifted through a […] screen is fumigated about 5-10 days prior to use. Pots are then filled with said Ray silt loam soil to a level to allow for a 1 in. (2.54 cm) flooding depth. Rice plants (Bluebelle) of 2 to 3 weeks age are transplanted to the pots and bulbs or seeds of the test weeds also planted in the pots. The pots are then flooded and the test chemical applied to the surface of the flood water. The flood water is reduced to allow for germination of the Echinochloa crus-galli (barnyardgrass) seed and subsequently reflooded and maintained in that condition. Observations of percent inhibition using a scale of 0-100% are made about 3 weeks after transplant (WAT).
as §1

Question: How did the inhibition at 375 g/ha ([1]; 2 WAT) turn out when `CCCOCCN(C(=O)CCl)c1c(CC)cccc1CC` [Compound D, 2',6'-diethyl-N-(n-propoxyethyl)-2-chloroacetanilide] was run?
Answer: 82%

Question: What about the inhibition at 375 g/ha ([1]; 4 WAT) of the same compound?
Answer: 65%

Question: What about the inhibition at 375 g/ha ([1]; 6 WAT) of the same compound?
Answer: 33%

Question: What about the inhibition at 750 g/ha ([1]; 2 WAT) of the same compound?
Answer: 73%

Question: And the inhibition at 750 g/ha ([1]; 4 WAT)?
Answer: 77%

Question: What about the inhibition at 750 g/ha ([1]; 6 WAT) of the same compound?
Answer: 70%

Question: What about the inhibition at 1500 g/ha ([1]; 2 WAT) of the same compound?
Answer: 92%

Question: And the inhibition at 1500 g/ha ([1]; 4 WAT)?
Answer: 93%

Question: What about the inhibition at 1500 g/ha ([1]; 6 WAT) of the same compound?
Answer: 93%

Question: And the inhibition at 3000 g/ha ([1]; 2 WAT)?
Answer: 67%

Question: What about the inhibition at 3000 g/ha ([1]; 4 WAT) of the same compound?
Answer: 65%

Question: And the inhibition at 3000 g/ha ([1]; 6 WAT)?
Answer: 60%

Question: What about the inhibition at 375 g/ha ([2]; 3 WAT) of the same compound?
Answer: 92%

Question: What about the inhibition at 375 g/ha ([2]; 5 WAT) of the same compound?
Answer: 87%

Question: And the inhibition at 375 g/ha ([2]; 7 WAT)?
Answer: 67%

Question: And the inhibition at 750 g/ha ([2]; 3 WAT)?
Answer: 77%

Question: What about the inhibition at 750 g/ha ([2]; 5 WAT) of the same compound?
Answer: 67%

Question: What about the inhibition at 750 g/ha ([2]; 7 WAT) of the same compound?
Answer: 33%

Question: And the inhibition at 1500 g/ha ([2]; 3 WAT)?
Answer: 77%

Question: And the inhibition at 1500 g/ha ([2]; 5 WAT)?
Answer: 77%

Question: What about the inhibition at 1500 g/ha ([2]; 7 WAT) of the same compound?
Answer: 100%

Question: And the inhibition at 3000 g/ha ([2]; 3 WAT)?
Answer: 90%

Question: What about the inhibition at 3000 g/ha ([2]; 5 WAT) of the same compound?
Answer: 100%

Question: And the inhibition at 3000 g/ha ([2]; 7 WAT)?
Answer: 100%

Question: And the “selectivity factor (GR15/GR85), CS in transplant rice” value ([2]; between 3 WAT and 7 WAT)?
Answer: 1

Question: And the inhibition at 375 g/ha ([3]; 2 WAT)?
Answer: 0%

Question: What about the inhibition at 375 g/ha ([3]; 4 WAT) of the same compound?
Answer: 3%

Question: And the inhibition at 375 g/ha ([3]; 6 WAT)?
Answer: 2%

Question: And the inhibition at 750 g/ha ([3]; 2 WAT)?
Answer: 2%

Question: And the inhibition at 750 g/ha ([3]; 4 WAT)?
Answer: 2%

Question: And the inhibition at 750 g/ha ([3]; 6 WAT)?
Answer: 0%

Question: What about the inhibition at 1500 g/ha ([3]; 2 WAT) of the same compound?
Answer: 10%

Question: What about the inhibition at 1500 g/ha ([3]; 4 WAT) of the same compound?
Answer: 8%

Question: And the inhibition at 1500 g/ha ([3]; 6 WAT)?
Answer: 7%

Question: What about the inhibition at 3000 g/ha ([3]; 2 WAT) of the same compound?
Answer: 8%

Question: What about the inhibition at 3000 g/ha ([3]; 4 WAT) of the same compound?
Answer: 7%

Question: What about the inhibition at 3000 g/ha ([3]; 6 WAT) of the same compound?
Answer: 5%

Question: What about the inhibition at 375 g/ha ([4]; 3 WAT) of the same compound?
Answer: 62%

Question: And the inhibition at 375 g/ha ([4]; 5 WAT)?
Answer: 48%

Question: What about the inhibition at 375 g/ha ([4]; 7 WAT) of the same compound?
Answer: 57%

Question: And the inhibition at 750 g/ha ([4]; 3 WAT)?
Answer: 88%

Question: What about the inhibition at 750 g/ha ([4]; 5 WAT) of the same compound?
Answer: 92%

Question: What about the inhibition at 750 g/ha ([4]; 7 WAT) of the same compound?
Answer: 88%

Question: And the inhibition at 1500 g/ha ([4]; 3 WAT)?
Answer: 78%

Question: And the inhibition at 1500 g/ha ([4]; 5 WAT)?
Answer: 75%

Question: And the inhibition at 1500 g/ha ([4]; 7 WAT)?
Answer: 78%

Question: What about the inhibition at 3000 g/ha ([4]; 3 WAT) of the same compound?
Answer: 100%

Question: What about the inhibition at 3000 g/ha ([4]; 5 WAT) of the same compound?
Answer: 100%

Question: What about the inhibition at 3000 g/ha ([4]; 7 WAT) of the same compound?
Answer: 100%

Question: What about the “selectivity factor (GR15/GR85), EC in transplant rice” value ([4]; between 3 WAT and 7 WAT) of the same compound?
Answer: 1

Question: What about the inhibition at 375 g/ha ([5]; 3 WAT) of the same compound?
Answer: 95%

Question: And the inhibition at 375 g/ha ([5]; 5 WAT)?
Answer: 98%

Question: What about the inhibition at 375 g/ha ([5]; 7 WAT) of the same compound?
Answer: 95%

Question: And the inhibition at 750 g/ha ([5]; 3 WAT)?
Answer: 100%

Question: And the inhibition at 750 g/ha ([5]; 5 WAT)?
Answer: 87%

Question: And the inhibition at 750 g/ha ([5]; 7 WAT)?
Answer: 100%

Question: What about the inhibition at 1500 g/ha ([5]; 3 WAT) of the same compound?
Answer: 100%

Question: And the inhibition at 1500 g/ha ([5]; 5 WAT)?
Answer: 100%

Question: And the inhibition at 1500 g/ha ([5]; 7 WAT)?
Answer: 100%

Question: What about the inhibition at 3000 g/ha ([5]; 3 WAT) of the same compound?
Answer: 100%

Question: What about the inhibition at 3000 g/ha ([5]; 5 WAT) of the same compound?
Answer: 100%

Question: What about the inhibition at 3000 g/ha ([5]; 7 WAT) of the same compound?
Answer: 100%

Question: What about the “selectivity factor (GR15/GR85), MV in transplant rice” value ([5]; between 3 WAT and 7 WAT) of the same compound?
Answer: 8

Question: With `CCCCOc1cccc(CC)c1N(CC)C(=O)CCl` [Example 2, N-ethyl-2'-n-butoxy-6'-ethyl-2-chloroacetanilide] as the compound, how does the inhibition at 280 g/ha ([6]; 0.28 Kg/Ha) read?
Answer: 0%

Question: And the inhibition at 560 g/ha ([6]; 0.56 Kg/Ha)?
Answer: 10%

Question: And the inhibition at 1120 g/ha ([6]; 1.12 Kg/Ha)?
Answer: 15%

Question: And the inhibition at 2240 g/ha ([6]; 2.24 Kg/Ha)?
Answer: 25%
